One data set has as its target T1, CYP1A2 (Homo sapiens, UniProt P05177).
T1 sequence (P05177 1-516): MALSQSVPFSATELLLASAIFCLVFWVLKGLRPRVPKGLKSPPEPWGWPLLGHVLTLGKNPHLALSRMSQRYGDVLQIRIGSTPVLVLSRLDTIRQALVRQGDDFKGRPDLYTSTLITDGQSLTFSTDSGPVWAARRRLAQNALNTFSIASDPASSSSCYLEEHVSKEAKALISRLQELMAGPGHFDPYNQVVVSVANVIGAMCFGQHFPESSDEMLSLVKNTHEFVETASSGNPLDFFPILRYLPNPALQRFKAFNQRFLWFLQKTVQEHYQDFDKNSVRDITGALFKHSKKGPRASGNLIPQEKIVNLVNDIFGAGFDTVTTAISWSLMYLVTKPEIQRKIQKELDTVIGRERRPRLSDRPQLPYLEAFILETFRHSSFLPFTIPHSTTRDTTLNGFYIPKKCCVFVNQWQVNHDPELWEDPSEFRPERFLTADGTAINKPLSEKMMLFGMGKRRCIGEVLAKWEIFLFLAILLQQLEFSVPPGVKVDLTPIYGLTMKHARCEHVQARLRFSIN
To be noted: hepatocytes.

A short description of the next data set: Hepatocyte stability. In kind it is in vitro ADME. To be noted: ICR/CD-1, hepatocytes (cryopreserved, suspension); mouse, 1 μM input, positive controls; read-out: Hepatocytes Clint, app.

Data on one compound can be found in article PMC5703966, “Systemic clearance and brain distribution of carbazole-based cyanine compounds as Alzheimer’s disease drug candidates” (Scientific Reports, 2017).

Protocol for CYP1A2: The samples were centrifuged at approximately 1,900 g for 10 mins before LC-MS/MS analysis.
The C YP3A4 and CYP1A2 activities in human hepatocytes were assayed by testosterone 6β-

Consider `CCOc1ccc(NC(C)=O)cc1` [Phenacetin, reference compound], for which, at CYP1A2, the “phenacetin O-deethylation (CYP1A2 activity)” value was found to be 24.3 ± 3.25 pmol/min/106 cells. Moreover, the hepatocyte CLint at 1 μM in the data set “Hepatocyte stability” amounted to 33 ± 8 µL/min/1e6 cells.
